Source: patent US8975415B2, “Chromane compounds” (CoMentis, Inc., priority 2012, dated 2015)
Counter-ions that a name gives are not always drawn. Like-named read-outs stand apart in the source and are kept apart here.

Columns and labels:
[1] = biological target: hERG potassium channel (Homo sapiens (Human), UniProt Q12809); test: hERG inhibition, automated planar patch-clamp in hERG-expressing CHO cells; settings: for selectivity ratio: human, CHO-K1 cells stably expressing hERG, pH 7.4
[2] = biological target: T1, BACE1 (Homo sapiens (Human), UniProt P56817); test: Measurement of BACE1 inhibition by fluorescence resonance energy transfer (FRET), MCA substrate; settings: for IC50: read-out: Test Example 1 IC50, MCA-SEVNLDAEFK(DNP)-NH2 substrate, pH 4.4
Target sequence in this assay (P56817 75-416): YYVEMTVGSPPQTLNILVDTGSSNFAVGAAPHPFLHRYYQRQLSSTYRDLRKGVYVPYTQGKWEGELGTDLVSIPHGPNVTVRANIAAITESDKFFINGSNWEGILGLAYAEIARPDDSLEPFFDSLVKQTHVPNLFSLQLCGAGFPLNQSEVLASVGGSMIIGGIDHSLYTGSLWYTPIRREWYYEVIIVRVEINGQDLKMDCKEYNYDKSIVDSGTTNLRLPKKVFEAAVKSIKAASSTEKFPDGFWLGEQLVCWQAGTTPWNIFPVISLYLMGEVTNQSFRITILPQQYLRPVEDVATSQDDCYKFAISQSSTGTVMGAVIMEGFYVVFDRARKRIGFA

[3] = biological target: T1, BACE1; test: Measurement of Aβ production inhibition in cell (SK-N-BE(2) neuroblastoma cells, Aβ40 ELISA); settings: Test Example 3 IC50, Aβ40 production, SK-N-BE(2) cells, 6 hours
Target sequence in this assay (P56817 46-501): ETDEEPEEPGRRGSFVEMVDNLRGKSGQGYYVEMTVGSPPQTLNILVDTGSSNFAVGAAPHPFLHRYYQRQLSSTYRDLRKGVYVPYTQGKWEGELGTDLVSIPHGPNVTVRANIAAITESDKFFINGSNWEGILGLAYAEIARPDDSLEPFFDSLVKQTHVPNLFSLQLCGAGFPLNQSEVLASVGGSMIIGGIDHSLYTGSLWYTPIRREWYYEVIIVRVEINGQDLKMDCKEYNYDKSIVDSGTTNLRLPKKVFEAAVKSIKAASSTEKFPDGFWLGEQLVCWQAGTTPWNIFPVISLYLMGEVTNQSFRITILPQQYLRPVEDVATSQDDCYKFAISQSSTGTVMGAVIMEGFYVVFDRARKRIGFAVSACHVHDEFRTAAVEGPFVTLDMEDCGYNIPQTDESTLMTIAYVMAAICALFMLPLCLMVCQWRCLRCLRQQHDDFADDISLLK

[4] = read-out: Test Example 5 hERG IC50, whole-cell patch clamp, room temperature
[5] = read-out: Test Example 1 BACE1 MCA Ki, FRET, MCA substrate

Sequence of hERG potassium channel (Q12809 whole entry): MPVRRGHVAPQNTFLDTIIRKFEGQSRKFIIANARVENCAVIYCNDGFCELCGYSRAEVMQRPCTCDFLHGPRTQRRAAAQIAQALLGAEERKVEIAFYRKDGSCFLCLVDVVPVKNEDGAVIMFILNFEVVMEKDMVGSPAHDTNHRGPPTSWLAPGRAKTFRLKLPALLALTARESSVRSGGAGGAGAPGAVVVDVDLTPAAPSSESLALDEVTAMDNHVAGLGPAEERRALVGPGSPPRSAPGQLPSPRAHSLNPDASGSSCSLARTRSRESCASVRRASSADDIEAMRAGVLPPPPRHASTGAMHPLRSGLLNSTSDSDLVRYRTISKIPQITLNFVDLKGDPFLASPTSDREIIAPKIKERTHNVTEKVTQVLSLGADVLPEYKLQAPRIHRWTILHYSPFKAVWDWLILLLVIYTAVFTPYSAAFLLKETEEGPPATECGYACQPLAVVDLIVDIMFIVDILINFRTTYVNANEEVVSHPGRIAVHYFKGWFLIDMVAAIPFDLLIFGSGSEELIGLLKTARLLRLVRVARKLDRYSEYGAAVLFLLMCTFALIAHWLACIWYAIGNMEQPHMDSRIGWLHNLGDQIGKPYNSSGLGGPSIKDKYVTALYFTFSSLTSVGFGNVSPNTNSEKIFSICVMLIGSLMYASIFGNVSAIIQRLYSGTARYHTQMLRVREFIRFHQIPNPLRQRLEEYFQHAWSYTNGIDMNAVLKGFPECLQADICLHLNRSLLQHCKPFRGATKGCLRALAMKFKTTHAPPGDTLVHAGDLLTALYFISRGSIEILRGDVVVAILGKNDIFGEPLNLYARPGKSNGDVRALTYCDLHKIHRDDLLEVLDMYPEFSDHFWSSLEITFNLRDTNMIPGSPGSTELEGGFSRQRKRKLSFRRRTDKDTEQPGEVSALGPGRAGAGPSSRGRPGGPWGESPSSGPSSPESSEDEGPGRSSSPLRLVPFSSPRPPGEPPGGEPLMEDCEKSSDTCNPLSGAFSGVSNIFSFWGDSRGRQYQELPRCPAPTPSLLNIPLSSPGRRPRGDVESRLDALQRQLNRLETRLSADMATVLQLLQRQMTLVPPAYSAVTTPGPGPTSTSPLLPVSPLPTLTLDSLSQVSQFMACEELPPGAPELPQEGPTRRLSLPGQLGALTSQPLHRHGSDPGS

| SMILES | IC50 [1, 4] [nM] | IC50 [3] [nM] | IC50 ([2]; FRET) [nM] | also measured |
| --- | --- | --- | --- | --- |
| C[C@H]1Oc2ccc(-c3cccnc3F)cc2[C@@]2(COC(N)=N2)C12COC2 (racemic) [RP 77] |  |  |  | IC50 [1]: > 10000 nM |
| C[C@@H]1Oc2ccc(-c3cccnc3F)cc2[C@@]2(COC(N)=N2)C12COC2 (racemic) [RP 79] | > 10000 |  |  |  |
| CC1(C)Cc2ccc(NC(=O)c3ccc(Cl)cn3)cc2C2(COC(N)=N2)C1 (racemic) [WO2011/123674 Example 89, reference compound] |  |  |  | IC50 [1]: 440 nM; selectivity ratio [1]: 1.8; Ki [2]: 241 nM |
| Cc1cnc(C(=O)Nc2ccc3c(c2)C2(COC(N)=N2)CC(C)(C)C3)cn1 (racemic) [WO2011/123674 Example 98, reference compound] |  |  |  | IC50 [1]: 9460 nM; selectivity ratio [1]: 2.3; Ki [2]: 4090 nM |
| NC1=NC2(CO1)c1cc(Br)ccc1OC(Cc1ccccc1)C21COC1 (single isomer, unassigned) [RP 15a] | > 10000 | 1100 | 1720 |  |
| NC1=NC2(CO1)c1cc(Br)ccc1OC(Cc1ccccc1)C21COC1 (single isomer, unassigned) [RP 15b] | 7930 | 440 | 1010 |  |
| NC1=NC2(CO1)c1cc(Br)ccc1OC(CC1CC1)C21COC1 (single isomer, unassigned) [RP 16a] | > 10000 |  | 9540 |  |
| NC1=NC2(CO1)c1cc(Br)ccc1OC(CC1CC1)C21COC1 (single isomer, unassigned) [RP 16b] | > 10000 | 4800 | 4570 |  |
| CC#Cc1cncc(-c2ccc3c(c2)C2(COC(N)=N2)C2(CC2)CO3)c1 (single isomer, unassigned) [RP 52a, 6′-[5-(prop-1-yn-1-yl)pyridin-3-yl]dispiro[cyclopropane-1,3′-chromene-4′,4″-[1,3]oxazol]-2″-amine] | 4830 | 75 | 161 |  |
| CC1(C)Oc2ccc(NC(=O)c3ccc(F)cn3)cc2[C@@]2(COC(N)=N2)C12CC2 [Example 222] | > 10000 | 0.62 | 138 | selectivity ratio [1]: > 109; Ki [2, 5]: 91.5 nM |
| COc1cnc(C(=O)Nc2ccc3c(c2)C2(COC(N)=N2)C2(COC2)C(C)(C)O3)cn1 (stereo not drawn) [Example 227] | > 10000 |  |  |  |
| COCc1cnn(-c2ccc3c(c2)C2(COC(N)=N2)C2(COC2)C2(CCC2)O3)c1 (stereo not drawn) [RP 4] | > 10000 | 7200 | 12600 |  |
| NC1=NC2(CO1)c1cc(-c3cncnc3)ccc1OC1(CCC1)C21COC1 (stereo not drawn) [RP 5] | > 10000 | 590 | 1560 |  |
| CC1(C)Oc2ccc(Br)cc2C2(COC(N)=N2)C12COC2 (stereo not drawn) [RP 6, 6′-bromo-2′,2′-dimethyldispiro[1,3-oxazole-4,4′-chromene-3′,3″-oxetan]-2-amine] | > 10000 | 3900 | 11700 |  |
| NC1=NC2(CO1)c1cc(Br)ccc1OC1(CCCC1)C21COC1 (stereo not drawn) [RP 10] | > 10000 |  | 7210 |  |
| NC1=NC2(CO1)c1cc(-c3cc(Cl)cnc3F)ccc1OCC21COC1 (stereo not drawn) [RP 34] | > 10000 | 260 | 1240 |  |
| CC1(C)Oc2ccc(Br)cc2C2(CSC(N)=N2)C12COC2 (stereo not drawn) [RP 42] | > 10000 | 5900 | 16100 |  |
| NC1=NC2(CO1)c1cc(Nc3ncccc3Cl)ccc1OCC21COC1 (stereo not drawn) [RP 43, 6′-(3-chloropyridin-2-yl)aminodispiro[1,3-oxazole-4,4′-chromene-3′,3″-oxetane]-2-amine] | > 10000 | 1400 | 1960 |  |
| COc1cccnc1Nc1ccc2c(c1)C1(COC(N)=N1)C1(COC1)C1(CCC1)O2 (stereo not drawn) [RP 45] | > 10000 | 57 | 1040 |  |
| CC(C)Cc1ccc2c(c1)C1(COC(N)=N1)C1(COC1)C1(CCC1)O2 (stereo not drawn) [RP 46, 6′-isobutyltrispiro[cyclobutane-1,2′-chromene-4′,4″-[1,3]oxazole-3′,3′″-oxetan]-2″-amine] | > 10000 | 1400 | 8940 |  |
| CC1(C)Oc2ccc(-c3cncnc3)cc2C2(CSC(N)=N2)C12COC2 (stereo not drawn) [RP 54, 2′,2′-dimethyl-6′-(pyrimidin-5-yl)dispiro[oxetane-3,3′-chromene-4′,4″-[1,3]thiazol]-2″-amine hydrochloride] | > 10000 | 79 | 406 |  |
| NC1=NC2(CO1)c1cc(-c3cnc4[nH]ccc4c3)ccc1OCC21CC1 (stereo not drawn) [RP 61, 6′-(1H-pyrrolo[2,3-b]pyridin-5-yl)dispiro[cyclopropane-1,3′-chromene-4′,4″-[1,3]oxazol]-2″-amine] | 9220 | 350 |  |  |
| Cc1cnnc(-c2ccc3c(c2)C2(COC(N)=N2)C2(COC2)C2(CCC2)O3)c1 (stereo not drawn) [RP 76] | > 10000 |  | 13400 |  |
| CC(C)CC1Oc2ccc(-c3cncnc3)cc2C2(COC(N)=N2)C12COC2 (stereo not drawn) [RP 90] | > 10000 |  | 901 |  |
| NC1=NC2(CO1)c1cc(-c3cncnc3)ccc1OCC21CCC1 (stereo not drawn) [RP 101] | 5280 |  | 7650 |  |
| Cc1cnc(F)c(-c2ccc3c(c2)C2(COC(N)=N2)C2(COC2)C2(CCC2)O3)c1 (stereo not drawn) [RP 116, 6′-(2-fluoro-5-methylpyridin-3-yl)trispiro[cyclobutane-1,2′-chromene-4′,4″-[1,3]oxazole-3′,3′″-oxetan]-2″-amine] | > 10000 |  |  |  |

| SMILES | IC50 [1, 4] [nM] | IC50 [3] [nM] | IC50 ([2]; FRET) [nM] | also measured |
| --- | --- | --- | --- | --- |
| NC1=NC2(CO1)c1cc(C3=CCCCC3)ccc1OC1(CCC1)C21COC1 (stereo not drawn) [RP 135] |  | 1800 | 3270 |  |
| COc1ccc(F)c(-c2ccc3c(c2)C2(COC(N)=N2)C2(COC2)C2(CCC2)O3)c1 (stereo not drawn) [RP 136, 6′-(2-fluoro-5-methoxyphenyl)trispiro[cyclobutane-1,2′-chromene-4′,4″-[1,3]oxazole-3′,3′″-oxetan]-2″-amine] |  | 660 | 635 |  |
| COc1cccc(-c2ccc3c(c2)C2(COC(N)=N2)C2(COC2)C2(CCC2)O3)c1F (stereo not drawn) [RP 137] |  | 830 | 773 |  |
| NC1=NC2(CO1)c1cc(-c3cccc(F)c3F)ccc1OC1(CCC1)C21COC1 (stereo not drawn) [RP 138] |  | 1500 | 1670 |  |
| CC1(C)Oc2ccc(-c3cccc(Cl)c3)cc2C2(COC(N)=N2)C12COC2 (stereo not drawn) [RP 139] |  | 140 | 252 | Ki [2, 5]: 215 nM |
| CC1(C)Oc2ccc(-c3cccc(C4CC4)c3)cc2C2(COC(N)=N2)C12COC2 (stereo not drawn) [RP 140] |  | 410 | 389 |  |
| CC1(C)Oc2ccc(-c3cccc(C(F)(F)F)c3)cc2C2(COC(N)=N2)C12COC2 (stereo not drawn) [RP 141] |  | 1300 | 903 |  |
| COc1cccc(-c2ccc3c(c2)C2(COC(N)=N2)C2(COC2)C(C)(C)O3)c1 (stereo not drawn) [RP 142] |  | 150 | 401 |  |
| CCOc1cccc(-c2ccc3c(c2)C2(COC(N)=N2)C2(COC2)C(C)(C)O3)c1 (stereo not drawn) [RP 144] |  | 460 | 879 |  |
| CC1(C)Oc2ccc(-c3cc(F)cc(Cl)c3)cc2C2(COC(N)=N2)C12COC2 (stereo not drawn) [RP 146, 6′-(3-chloro-5-fluorophenyl)-2′,2′-dimethyldispiro[1,3-oxazole-4,4′-chromene-3′,3″-oxetan]-2-amine] |  | 210 | 226 | Ki [2, 5]: 188 nM |
| CC1(C)Oc2ccc(-c3cc(F)cc(F)c3)cc2C2(COC(N)=N2)C12COC2 (stereo not drawn) [RP 147] |  | 170 | 621 |  |
| Cc1cc(F)cc(-c2ccc3c(c2)C2(COC(N)=N2)C2(COC2)C(C)(C)O3)c1 (stereo not drawn) [RP 148] |  | 480 | 614 |  |
| Cc1cnc(Cl)c(-c2ccc3c(c2)C2(COC(N)=N2)C2(COC2)C(C)(C)O3)c1 (stereo not drawn) [RP 151] |  | 280 | 1360 |  |
| CC1(C)Oc2ccc(-c3cc(Cl)cnc3Cl)cc2C2(COC(N)=N2)C12COC2 (stereo not drawn) [RP 152] |  | 110 | 688 |  |
| CC1(C)Oc2ccc(-c3cc(F)cnc3Cl)cc2C2(COC(N)=N2)C12COC2 (stereo not drawn) [RP 153] |  | 130 | 1130 |  |
| CC1(C)Oc2ccc(-c3cccnc3Cl)cc2C2(COC(N)=N2)C12COC2 (stereo not drawn) [RP 156] |  | 180 | 2610 |  |
| Cc1cc(-c2ccc3c(c2)C2(COC(N)=N2)C2(COC2)C(C)(C)O3)cnc1F (stereo not drawn) [RP 157] |  | 660 | 2800 |  |
| CC1(C)Oc2ccc(-c3cc(F)ncc3Cl)cc2C2(COC(N)=N2)C12COC2 (stereo not drawn) [RP 158] |  | 370 | 930 |  |
| NC1=NC2(CO1)c1cc(NC(=O)c3ncc(Br)cn3)ccc1OCC21CC1 (stereo not drawn) [RP 189] |  | 43 | 661 | Ki [2, 5]: 623 nM |
| Cc1cc(C#N)cnc1C(=O)Nc1ccc2c(c1)C1(COC(N)=N1)C1(CC1)CO2 (stereo not drawn) [RP 191] | > 10000 |  |  |  |
| N#Cc1cnc(C(=O)Nc2ccc3c(c2)C2(COC(N)=N2)C2(CC2)CO3)c(Cl)c1 (stereo not drawn) [RP 192] | > 10000 |  | 318 | Ki [2, 5]: 280 nM |
| COc1cnc(C(=O)Nc2ccc3c(c2)C2(COC(N)=N2)C2(CC2)CO3)cn1 (stereo not drawn) [RP 193] |  | 81 | 1040 |  |
| N#Cc1ccc(C(=O)Nc2ccc3c(c2)C2(COC(N)=N2)C2(CC2)CO3)nc1 (stereo not drawn) [RP 196] |  | 53 | 380 | Ki [2, 5]: 342 nM |
| NC1=NC2(c3cc(-c4cncnc4)ccc3OCC23CC3)C(F)(F)CS1 (stereo not drawn) [RP 198, 5″,5″-difluoro-6′-(pyrimidin-5-yl)-5″,6″-dihydrodispiro[cyclopropane-1,3′-chromene-4′,4″-[1,3]thiazin]-2″-amine] | > 1000 |  | 14900 |  |
| CC#Cc1cncc(-c2ccc3c(c2)C2(COC(N)=N2)C2(COC2)C(CC2CC2)O3)c1 (stereo not drawn) [RP 205] |  | 22 | 126 | Ki [2, 5]: 82.5 nM |
| NC1=NC2(c3cc(-c4cncnc4)ccc3OCC23CC3)C(F)(F)CO1 (stereo not drawn) [RP 206] |  | > 30000 | 4910 |  |
